Laboratory results published in patent US7834024B2, “Compositions and methods for inhibition of the JAK pathway” (Rigel Pharmaceuticals, Inc., priority 2007, dated 2010).
pIC50: −log10 of the molar value. Where two headings read alike, the source gives them in different places.

Legend:
[1] = tested on: Ramos B-Cell Line Stimulated with IL-4 (JAK-1 and JAK-3 / Stat-6, CD23); assay: Assay for Ramos B-Cell Line Stimulated with IL-4 (CD23 upregulation, FACS); format: cell-based; details: human Ramos B cells, compound 1 hour, IL-4 50 units/mL for 20-24 hours, anti-CD23-PE FACS, read-out: Example 2 (IC50)
In short: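 Human Ramos B cells (5×10^4 per point, RPMI with 5% serum) pre-incubated 1 hour at 37° C with compound or DMSO, then stimulated with IL-4 at 50 units/mL final for 20-24 hours. CD23 upregulation measured by flow cytometry.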

[2] = tested on: JAK2 (BaF3 V617F cells, UKE-1); assay: Proliferation Assay (Cell Titer-Glo, 72 hours); format: cell-based; details: proliferation 72 hours, BaF3 V617F or UKE-1 cells, cell line not given, read-out: Example 7 (IC50)
Protocol: • Dimethyl Sulfoxide (DMSO) (Sigma-Aldrich, Cat No. D2650) (Control) • Iscove's DMEM, ATCC Catalog #30-2005 • 1 M HEPES, Cellgro Catalog #25-060-Cl (100 mL) • 100 mM Sodium Pyruvate, Cellgro Catalog #25-000-Cl (100 mL) • Penicillin/Streptomycin, 10000 U/mL each, Cellgro Catalog #30-002-Cl (100 mL) • RPMI 1640 (Cellgro, Cat No. 10-040-CM) • Fetal Bovine Serum (JRH, Cat No. 12106-500M) • Donor Equine Serum, Hyclone Catalog #SH30074.02 (100 mL) • 50 μM hydrocortisone solution, Sigma Catalog #H6909-10 ml (10 mL) Culture Conditions
BaF3 V617F cells are maintained and plated in RPMI with 10% FBS. Plating density for these cells is 1×10^5 cells/mL.
UKE-1 are maintained and plated in Iscove's DMEM containing 10% FBS, 10% equine serum, 1% penicillin/streptomycin and 1 uM hydrocortisone. Plating density for these cells is 0.4×10^6 cells/mL
The cells were resuspended in a corresponding medium at a required cell density (see above). 100 μ of cell suspension was added to each well of a flat bottom 96 well white plate. The compound was serially diluted in DMSO from 5 mM in 3-fold dilutions, and then diluted 1:250 in the RPMI 1640 medium containing 5% FBS and pen/strep. 100 μL of resulting 2× compound solution was added per well in duplicate and the cells were allowed to proliferate for 72 hours at 37° C.
Proliferation was measured using Cell Titer-Glo. The substrate was thawed and allowed to come to room temperature. After removal of top 100 μL of medium from each well, 100 μL of the premixed Cell Titer-Glo reagent was added to each well. The plates were mixed on an orbital shaker for three minutes to induce lysis and incubated at ambient temperature for an additional five minutes to allow the signal to equilibrate. The Luminescence was read on the Wallac Plate Reader.
The results of the ability of the compounds of the invention to inhibit JAK2 activity, when tested in the above assay, are shown in the following Table IX wherein the level of activity (i.e. the IC50) for each compound is indicated in Table IX. Thae compound numbers in Table IX Refers to the compound disclosed herein as being preparded hy the methods disclosed herein: […]

Row | pIC50 [2] | pIC50 ([1]; Homo sapiens, Ramos) | SMILES | pIC50 [1]
1 | 5.68 |  | Cc1cnc(Nc2cccc(C(N)=O)c2)nc1Nc1ccc2c(c1)N(C)C(=O)CS2 [II-41, N2-(3-Aminocarbonylphenyl)-N4-(3,4-dihydro-2H-4-methyl-3-oxo-benz[1,4]thiazin-6-yl)-5-methyl-2,4-pyrimidinediamine] | 6.89
2 | 6.25 | 7.66 | N#CCOc1cccc(Nc2nc(Nc3ccc(C(N)=O)cc3)ncc2F)c1 [Compound I-44, N2-(4-Aminocarbonylphenyl)-N4-(3-cyanomethoxyphenyl)-5-fluoro-2,4-pyrimidinediamine] | 
3 | 6.36 | 6.75 | Cc1cnc(Nc2cccc(C(N)=O)c2)nc1Nc1ccc2c(c1)N(C)C(=O)C(C)(C)S2 [II-45, N2-(3-Aminocarbonylphenyl)-5-methyl-N4-(2,2,4-trimethyl-3-oxo-benz[1,4]thiazin-6-yl)-2,4-pyrimidinediamine] | 
4 | 5.84 | 6.93 | Cc1cnc(Nc2cccc(C#N)c2)nc1Nc1ccc2c(c1)N(C)C(=O)CS2 [II-7, N2-(3-Cyanophenyl)-5-methyl-N4-(4-methyl-3-oxo-2H-benzo[1,4]thiazin-6-yl)-2,4-pyrimidinediamine] | 
5 | 6.79 |  | CNC(=O)COc1cc(Nc2ncc(F)c(Nc3ccc4c(c3)NC(=O)C(C)(C)S4)n2)cc(OC)c1OC [II-17, N2-[4,5-Dimethoxy-3-(N-methylaminocarbonylmethyleneoxy)phenyl]-N4-(2,2-dimethyl-3-oxo-4H-benzo[1,4]thiazin-6-yl)-5-fluoro-2,4-pyrimidinediamine] | 7.24
6 | 4.17 | 7.16 | Cc1cnc(Nc2cccc(C#N)c2)nc1Nc1ccc2c(c1)NC(=O)CO2 [II-6, N2-(3-Cyanophenyl)-5-methyl-N4-(3-oxo-2H,4H-benzo[1,4]oxazin-6-yl)-2,4-pyrimidinediamine] | 
7 |  |  | CN1CCN(C(=O)c2ccc(Nc3ncc(F)c(Nc4ccc(CC#N)cc4)n3)cc2)CC1 [Compound I-73, N4-(4-Cyanomethylphenyl)-5-fluoro-N2-[4-((4-methylpiperazin-1-yl)carbonyl)phenyl]-2,4-pyrimidinediamine] | 5.76
8 |  | 6.83 | CC(C)(C#N)Oc1ccc(Nc2nc(Nc3ccc(C(N)=O)cc3)ncc2F)cc1 [Compound I-84, N2-(4-Aminocarbonylphenyl)-N4-[4-(1-cyano-1-methylethoxy)phenyl]-5-fluoro-2,4-pyrimidinediamine] | 
9 |  | 6.77 | N#CCc1ccc(Nc2nc(Nc3ccc(C(N)=O)cc3)ncc2F)cc1 [Compound I-67, N2-(4-Aminocarbonylphenyl)-N4-(4-cyanomethylphenyl)-5-fluoro-2,4-pyrimidinediamine] | 
10 |  | 6.59 | Cc1cc(Nc2nc(Nc3cccc(C(N)=O)c3)ncc2F)cc(C)c1OC(C)C#N (stereo not drawn) [Compound I-96, N2-(3-Aminocarbonylphenyl)-N4-[4-(1-cyanoethoxy)-3,5-dimethylphenyl]-5-fluoro-2,4-pyrimidinediamine] | 
11 |  |  | Cc1cnc(Nc2cccc(C(N)=O)c2)nc1Nc1ccc(OCc2ccccn2)cc1 [Compound I-134, N2-(3-Aminocarbonylphenyl)-5-methyl-N4-[4-(2-pyridinylmethyleneoxy)phenyl]-2,4-pyrimidinediamine] | 7.07
12 |  |  | CCN(CC)CCNC(=O)c1ccc(Nc2ncc(F)c(Nc3ccc(OCc4ccccn4)cc3)n2)cc1 [Compound I-135, N2-[4-(2-(N,N-Diethylamino)ethylaminocarbonyl)phenyl)-5-fluoro-N4-[4-(2-pyridinylmethyleneoxy)phenyl]-2,4-pyrimidinediamine] | 7.25
13 |  | 5.56 | C#CCOc1ccc(Nc2nc(Nc3cccc(C(N)=O)c3)ncc2F)cc1 [Compound I-6, N2-(3-Aminocarbonylphenyl)-5-fluoro-N4-[4-(2-propynyloxy)phenyl]-2,4-pyrimidinediamine] | 
14 |  | 6.46 | N#CCOc1ccc(Nc2ncc(F)c(Nc3ccc(OCC#N)c(Cl)c3)n2)cc1Cl [Compound I-107, N2,N4-Bis(3-chloro-4-cyanomethoxyphenyl)-5-fluoro-2,4-pyrimidinediamine] | 
15 |  | 6.37 | CN1CCN(c2ccc(Nc3ncc(F)c(Nc4ccc(CC#N)cc4)n3)cc2C(N)=O)CC1 [Compound I-74, N2-[3-Aminocarbonyl-4-(4-methylpiperazin-1-yl)phenyl]-N4-(4-cyanomethylphenyl)-5-fluoro-2,4-pyrimidinediamine] | 
16 |  | 7.72 | CN1CCN(c2ccc(Nc3ncc(F)c(Nc4cccc(OCC#N)c4)n3)cc2C(N)=O)CC1 [Compound I-54, N2-[3-Aminocarbonyl-4-(4-methylpiperazin-1-yl)phenyl]-N4-(3-cyanomethoxyphenyl)-5-fluoro-2,4-pyrimidinediamine] | 
17 |  | 6.50 | COc1ccc(Nc2nc(Nc3ccc(C(=O)Nc4ccn(C)n4)cc3)ncc2F)cc1Cl [Compound I-2, N4-(3-Chloro-4-methoxyphenyl)-5-fluoro-N2-[4-((1-methyl-1H-pyrazol-3-yl)aminocarbonyl)phenyl]-2,4-pyrimidinediamine] | 
18 |  | 6.84 | CC1(C)Oc2ccc(Nc3nc(Nc4ccc5oc(C(=O)NCCN6CCOCC6)cc5c4)ncc3F)nc2NC1=O [Compound V-1, N4-[2,2-Dimethyl-3-oxo-4H-5-pyrido[1,4]oxazin-6-yl]-5-fluoro-N2-[2-(2-(N-morpholinyl)ethylaminocarbonyl)benzofuran-5-yl]-2,4-pyrimidinediamine] | 
19 |  | 6.54 | CC1(C)Oc2ccc(Nc3nc(Nc4ccc5c(c4)C(=O)NCC5)ncc3F)nc2NC1=O [IV-1, N4-[2,2-Dimethyl-3-oxo-4H-5-pyrido[1,4]oxazin-6-yl]-5-fluoro-N2-(I-oxo-1,2,3,4-tetrahydroisoquinolin-7-yl)-2,4-pyrimidinediamine] | 
20 |  | 6.37 | CNC(=O)c1cc(Nc2ncc(F)c(Nc3ccc(OCC(N)=O)cc3)n2)ccc1N1CCN(C)CC1 [Compound I-39, N4-(4-Aminocarbonylmethoxyphenyl)-5-fluoro-N2-[3-methylaminocarbonyl-4-(4-methylpiperazin-1-yl)phenyl]-2,4-pyrimidinediamine] | 
21 |  | 8.27 | CN1C(=O)CSc2ccc(Nc3nc(Nc4ccc(C(N)=O)cc4)ncc3F)cc21 [II-4, N2-(4-Aminocarbonylphenyl)-5-fluoro-N4-(4-methyl-3-oxo-2H-benzo[1,4]thiazin-6-yl)-2,4-pyrimidinediamine] | 
22 |  |  | Cc1noc(COc2ccc(N(C)c3nc(Nc4ccc(C(N)=O)c(Cl)c4)ncc3F)cc2)n1 [Compound I-16, N2-(4-Aminocarbonyl-3-chlorophenyl)-5-fluoro-N4-methyl-N4-[4-((3-methyl-1,2,4-oxadiazol-5-yl)methyleneoxy)phenyl]-2,4-pyrimidinediamine] | 6.04
23 |  |  | Cc1noc(COc2cccc(Nc3nc(Nc4ccc(CC#N)cc4)ncc3F)c2)n1 [Compound I-129, N2-(4-Cyanomethylphenyl)-5-fluoro-N4-[3-((3-methyl-1,2,4-oxadiazol-5-yl)methyleneoxy)phenyl]-2,4-pyrimidinediamine] | 5.89
24 |  | 6.82 | COc1ccc(Nc2nc(Nc3ccc4oc(C(=O)NCCN5CCOCC5)cc4c3)ncc2F)cc1Cl [III-1, N4-(3-Chloro-4-methoxyphenyl)-5-fluoro-N2-[2-(2-(N-morpholinyl)ethylaminocarbonyl)benzofuran-5-yl]-2,4-pyrimidinediamine] | 
25 |  | 7.53 | Cc1noc(COc2ccc(Nc3nc(Nc4ccc(CC#N)cc4)ncc3F)cc2)n1 [Compound I-110, N2-(4-Cyanomethylphenyl)-5-fluoro-N4-[4-((3-methyl-1,2,4-oxadiazol-5-yl)methoxy)phenyl]-2,4-pyrimidinediamine] | 
26 |  | 6.42 | Cc1cc(Nc2nc(Nc3ccc(CC#N)cc3)ncc2F)ccc1OC(C)C#N (stereo not drawn) [Compound I-94, N4-[4-(1-Cyanoethoxy)-3-methylphenyl]-N2-(4-cyanomethylphenyl)-5-fluoro-2,4-pyrimidinediamine] | 
27 |  | 6.56 | N#CCc1ccc(Nc2ncc(F)c(Nc3ccc(OCC(N)=O)cc3)n2)cc1 [Compound I-76, N4-(4-Aminocarbonylmethoxyphenyl)-N2-(4-cyanomethylphenyl)-5-fluoro-2,4-pyrimidinediamine] | 
